Patent US7875604B2, “Compounds that inhibit HIV particle formation” (University of Virginia Patent Foundation, priority 2004, dated 2011)
Several values for one entry are separate records, joined by “and”; a condition that tells them apart may be missing. Equal values may be shown once. Read-outs that look alike come from different tables or passages of the source.

Key:
HIV-1 BR/93/021 = experiment: Anti-HIV efficacy in fresh human PBMCs, reverse transcriptase readout, HIV-1 BR/93/021; assay type: cell-based
Description: (§1) Compounds were evaluated for their ability to inhibit HIV replication in fresh human PBMCs. The assay was performed as follows.
(§2) Fresh human PBMCs, seronegative for HIV and HBV, were isolated from screened donors (Interstate Blood Bank, Inc. Memphis, Tenn.). Cells were pelleted/washed 2-3 times by low speed centrifugation and re-suspension in PBS to remove contaminating platelets. The Leukophoresed blood was then diluted 1:1 with Dulbecco's Phosphate Buffered Saline (DPBS) and layered over 14 mL of Lymphocyte Separation Medium (LSM; Cellgro® by Mediatech, Inc.; density 1.078+/−0.002 g/ml; Cat.#85-072-CL) in a 50 mL centrifuge tube and then centrifuged for 30 minutes at 600×g. Banded PBMCs were gently aspirated from the resulting interface and subsequently washed 2× with PBS by low speed centrifugation. After the final wash, cells were enumerated by trypan blue exclusion and re-suspended at 1×10^7 cells/mL in RPMI 1640 supplemented with 15% Fetal Bovine Serum (FBS), and 2 mM L-glutamine, 4 μg/mL Phytohemagglutinin (PHA-P, Sigma). The cells were allowed to incubate for 48-72 hours at 37° C. After incubation, PBMCs were centrifuged and resuspended in RPMI 1640 with 15% FBS, 2 mM L-glutamine, 100 U/mL penicillin, 100 μg/mL streptomycin, 10 μg/mL gentamycin, and 20 U/mL recombinant human IL-2 (R&D Systems, Inc). IL-2 is included in the culture medium to maintain the cell division initiated by the PHA mitogenic stimulation. PBMCs were maintained in this medium at a concentration of 1-2×10^6 cells/mL with biweekly medium changes until used in the assay protocol. Cells were kept in culture for a maximum of two weeks before being deemed too old for use in assays and discarded. Monocytes were depleted from the culture as the result of adherence to the tissue culture flask.
(§3) For the standard PBMC assay, PHA-P stimulated cells from at least two normal donors were pooled (mixed together), diluted in fresh medium to a final concentration of 1×10^6 cells/mL, and plated in the interior wells of a 96 well round bottom microplate at 50 μL/well (5×10^4 cells/well) in a standard format developed by the Infectious Disease Research department of Southern Research Institute. Pooling (mixing) of mononuclear cells from more than one donor is used to minimize the variability observed between individual donors, which results from quantitative and qualitative differences in HIV infection and overall response to the PHA and IL-2 of primary lymphocyte populations. Each plate contains virus/cell control wells (cells plus virus), experimental wells (drug plus cells plus virus) and compound control wells (drug plus media without cells, necessary for MTS monitoring of cytotoxicity). Since HIV-1 is not cytopathic to PBMCs, this allows the use of the same assay plate for both antiviral activity and cytotoxicity measurements. Test drug dilutions were prepared at a 2× concentration in microtiter tubes and 100 μL of each concentration was placed in appropriate wells using the standard format. 50 μL of a predetermined dilution of virus stock was placed in each test well (final MOI≅0.1). The PBMC cultures were maintained for seven days following infection at 37° C., 5% CO2. After this period, cell-free supernatant samples were collected for analysis of reverse transcriptase activity as a measure of virus release. Following removal of supernatant samples, compound cytotoxicity was measured by addition of MTS to the plates for determination of cell viability. Wells were also examined microscopically and any abnormalities were noted.
(§4) A microtiter plate-based reverse transcriptase (RT) reaction was utilized (Buckheit et al., AIDS Research and Human Retroviruses 7:295-302, 1991). Tritiated thymidine triphosphate (3H-TTP, 80 Ci/mmol, NEN) was received in 1:1 dH2O:Ethanol at 1 mCi/mL. […]

HIV-1 NL4-3 = experiment: Anti-HIV efficacy in fresh human PBMCs, reverse transcriptase readout, HIV-1 NL4-3; assay type: cell-based
Description: as §1, §2, §3, §4

fresh human PBMCs = experiment: MTS staining for PBMC viability to measure cytotoxicity; assay type: cell-based
Description: as §3
At assay termination, assay plates were stained with the soluble tetrazolium-based dye MTS (CellTiter 96 Reagent, Promega) to determine cell viability and quantify compound toxicity. The mitochondrial enzymes of metabolically active cells metabolize MTS to yield a soluble formazan product. This allows the rapid quantitative analysis of cell viability and compound cytotoxicity. […] At termination of the assay, 20 μL of MTS reagent was added per well. The microtiter plates were then incubated 4-6 hrs at 37° C. The incubation intervals were chosen based on empirically determined times for optimal dye reduction. Adhesive plate sealers were used in place of the lids, the sealed plate was inverted several times to mix the soluble formazan product and the plate was read spectrophotometrically at 490/650 nm with a Molecular Devices Vmax or SpectraMaxPlus plate reader.
(§5) Compounds were tested in the PBMC assay using the maximum high-test concentration possible based on the supplied stocks which are listed in table 3. Compounds were prepared at a 2× high-test concentration by combining drug stock with tissue culture media at a ratio of 5 μL of drug to 995 μL of media. This 2× high-test sample was subsequently serially diluted in tissue culture media using 1/2 log dilutions. This series of 2× concentrated drug was subsequently diluted 1:1 by combining with an equal volume of cells in media in the 96-well plates used for the assay.

[1] = system: U1 cells latently infected with HIV-1; experiment: U1 latency activation assay (TNF-α induced, supernatant reverse transcriptase); assay type: cell-based; conditions: U1 cell assay
Description: U1 cells were obtained from the AIDS Research and Reference Reagent Program and maintained under standard culture conditions in RPMI 1640 supplemented with 10% fetal bovine serum (heat inactivated), 2 mM L-glutamine, 100 U/mL penicillin and 100 μg/mL streptomycin. U1 cells are derived from the histocytic leukemia cell line U937, and contain an integrated copy of a cytokine and/or phorbol inducible provirus (HIV-1IIIB). Cultures were maintained in such a way as to ensure exponential growth of the populations. Addition of TNF-α to the cell culture induces HIV-1, so that inhibition of virus production indicates an inhibition of a post-integration function of the HIV-1 life cycle. This is where an inhibitor of Rev function would be expected to act. […]
(§6) At the time of the assay, cells were collected by centrifugation and counted by hemacytometer. If cell viability by Trypan Blue dye exclusion was less than 70% the assay was terminated. The cells were adjusted to 5×10^4 cells/mL and 100 μL placed in 96 well plates with 100 μL media containing a final concentration of 5 ng/mL TNF-α and the test compound. Cultures were incubated for 3 days and supernatants harvested. Compound toxicity was determined by MTS dye reduction. Virus expression was measured by supernatant reverse transcriptase activity.
Reverse transcriptase was assayed to measure virus particle release as described above for the PBMC assay.
as §5, with “U1 latency” for “PBMC”, “3. Compounds were tested using the maximum high-test concentration possible based on the supplied stocks.” for “3.”, “assay. Temacrazine a known inhibitor of HIV transcription was used as a control compound that is active in the post-integration part of the HIV life cycle.” for “assay.”
as §5, with “were tested using the” for “were tested in the PBMC assay using the”, “the supplied stocks. Compounds were” for “the supplied stocks which are listed in table 3. Compounds were”, “2× high-test (HT) sample was” for “2× high-test sample was”

U1 cells = experiment: MTS staining for cell viability in U1 cell assay; assay type: cell-based; conditions: analogs, Table 8, MTS, read-out: TC50 (the source's name)
Description: as §6
(§7) At assay termination, the assay plates were stained with the soluble tetrazolium-based dye MTS (CellTiter 96 Reagent, Promega) to determine cell viability and quantify compound toxicity as described for the PBMC assay.
as §5, with “U1 latency” for “PBMC”, “3. Compounds were tested using the maximum high-test concentration possible based on the supplied stocks.” for “3.”, “assay. Temacrazine a known inhibitor of HIV transcription was used as a control compound that is active in the post-integration part of the HIV life cycle.” for “assay.”
as §5, with “were tested using the” for “were tested in the PBMC assay using the”, “the supplied stocks. Compounds were” for “the supplied stocks which are listed in table 3. Compounds were”, “2× high-test (HT) sample was” for “2× high-test sample was”

HIV-1 Rev = target: T1, HIV-1 Rev (Human immunodeficiency virus type 1 group M subtype B, UniProt P04618); experiment: cell-based
T1 construct: expressed in transfected cells
Description: The eight compounds listed in Table 1 were also tested in an assay that measured HIV-1 Rev function. […] The reporter used for these assays is the Renilla Luciferase protein, which is an enzyme that produces detectable light when mixed with certain chemicals. For this assay, a cell line has been developed in which the production of the reporter by the cells requires the function of HIV-1 Rev. Therefore, if a drug candidate inhibits the function of Rev, it decreases the amount of the reporter produced by the cells. By using Renilla Luciferase as the reporter, the inhibition of Rev is easily detected as a decrease in the amount of light produced by the cells when mixed with the appropriate chemicals.
as §5, with “Rev” for “PBMC”, “as shown” for “which are listed”, “Table” for “table”

HeLa = experiment: HIV-1 Rev assay toxicity/non-specificity readout (Firefly Luciferase); assay type: cell-based; conditions: 50% inhibition of Firefly Luciferase (toxicity/non-specificity), 24 hours; read-out: TC50 (the source's name)
Description: The eight compounds listed in Table 1 were also tested in an assay that measured HIV-1 Rev function. The HIV-1 Rev assay is based upon the use of a reporter for detecting whether drug candidates are capable of inhibiting the function of the viral Rev protein. The reporter used for these assays is the Renilla Luciferase protein, which is an enzyme that produces detectable light when mixed with certain chemicals. For this assay, a cell line has been developed in which the production of the reporter by the cells requires the function of HIV-1 Rev. Therefore, if a drug candidate inhibits the function of Rev, it decreases the amount of the reporter produced by the cells. By using Renilla Luciferase as the reporter, the inhibition of Rev is easily detected as a decrease in the amount of light produced by the cells when mixed with the appropriate chemicals. Furthermore, the cell line for this assay has been engineered to use a second similar reporter (Firefly Luciferase) that detects whether drug candidates are toxic.
as §5, with “Rev” for “PBMC”, “as shown” for “which are listed”, “Table” for “table”, “assay. Representative data for two of the compounds is also depicted in FIG. 5.” for “assay.”
Leptomycin B is a control compound known to inhibit Rev function.

[2] = MTS staining for cell viability in U1 cell assay; assay type: cell-based; conditions: human, U1 cells stimulated with TNF-α, read-out: TC50
Description: as §6, §7
as §5, with “U1 latency” for “PBMC”, “3. Compounds were tested using the maximum high-test concentration possible based on the supplied stocks.” for “3.”, “assay. Temacrazine a known inhibitor of HIV transcription was used as a control compound that is active in the post-integration part of the HIV life cycle.” for “assay.”
as §5, with “were tested using the” for “were tested in the PBMC assay using the”, “the supplied stocks. Compounds were” for “the supplied stocks which are listed in table 3. Compounds were”, “2× high-test (HT) sample was” for “2× high-test sample was”

T1 sequence (P04618 whole entry, looked up): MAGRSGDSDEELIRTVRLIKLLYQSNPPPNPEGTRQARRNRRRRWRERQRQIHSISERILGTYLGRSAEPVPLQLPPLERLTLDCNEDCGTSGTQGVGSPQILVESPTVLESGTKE

| SMILES | IC50 ([1]; analogs, Table 8) [µM] | CC50 (U1 cells) [µM] | other results |
| --- | --- | --- | --- |
| Cc1cn([C@H]2C[C@H](N=[N+]=[N-])[C@@H](CO)O2)c(=O)[nH]c1=O [AZT, reference compound] | – | – | TI (TC50/IC50) (HIV-1 BR/93/021; HIV-1 BR/93/021, PBMCs): >404.86; IC50 (HIV-1 BR/93/021; HIV-1 BR/93/021, fresh human PBMCs, seven days, RT activity): 0.00247 µM; TI (TC50/IC50) (HIV-1 NL4-3; HIV-1 NL4-3, PBMCs): >1612.90; IC50 (HIV-1 NL4-3; HIV-1 NL4-3, fresh human PBMCs, seven days, RT activity): 0.00062 µM; CC50 (fresh human PBMCs): > 1 µM |
| Fc1ccccc1-c1nc(Nc2cccc(C(F)(F)F)c2)c2ccccc2n1 [Compound 748] | 10.5 | 33 | – |
| COc1ccc(Nc2nc(-c3ccccc3F)nc3ccccc23)cc1 [Compound 749] | 2.05 | 19.5 | – |
| Oc1ccccc1-c1nc(Nc2ccc(F)c(F)c2)c2ccccc2n1 [Compound 750] | > 75 | > 75 | – |
| COc1ccccc1Nc1nc(-c2ccccc2O)nc2ccccc12 [Compound 751] | 71.4 | > 75 | – |
| COC(=O)c1cccc(Nc2nc(-c3ccccc3O)nc3ccccc23)c1 [Compound 752] | > 75 | > 75 | – |
| Clc1ccc(-c2nc(Nc3ccc(Oc4ccccc4)cc3)c3ccccc3n2)cc1 [Compound 753] | 47.1 | 48 | – |
| CC(=O)Nc1ccc(Nc2nc(-c3ccccc3)nc3ccccc23)cc1 [Compound 754] | 3.69 | 15.1 | – |
| CC(=O)c1ccc(Nc2nc(-c3ccccc3)nc3ccccc23)cc1 [Compound 755] | 1.78 | > 75 | – |
| Cc1nc(Oc2ccccc2)c2ccccc2n1 [Compound 756] | 1.74 | 52 | – |
| CCC(=C/[C@H](C)C/C=C/C(C)=C/[C@@H](C)C(=O)[C@@H](C)[C@H](O)[C@@H](C)C/C(C)=C/C(=O)O)/C=C/[C@@H]1OC(=O)C=C[C@@H]1C [Leptomycin B, reference compound] | – | – | IC50 (HIV-1 Rev; 50% inhibition of Renilla Luciferase, 24 hours, HeLa reporter line, read-out: IC50): 0.00822 µM and 0.00817 µM; TI (TC50/IC50) (HIV-1 Rev; Rev assay): 2.43 and 2.35; CC50 (HeLa): 0.02 µM and 0.0192 µM |
| O=c1c2ccccc2n2nnc3ccc(NCCCN4CCN(CCCNc5ccc6nnn7c8ccccc8c(=O)c5c67)CC4)c1c32 [Temacrazine, reference compound] | – | – | IC50 ([1]; Human immunodeficiency virus 1, 72 h, Table 6, 5 ng/mL TNF-α, 3 days, RT activity): 0.002 µM; TI (TC50/IC50) ([1]; Table 6): >250; CC50 at 3 days ([2]; Table 6, MTS): > 0.5 µM; CC50 at 3 days ([2]; Table 8, control, MTS): > 0.5 µM |
